{"source": "patent US9487762B1", "about": "“Method and system for producing triterpenes” (University of Kentucky Research Foundation, priority 2012, dated 2016)", "key": {"[1]": {"system": "six B. braunii SMT-like genes (TMT-1, -2, -3, SMT-1, -2, -3)", "assay": "In vitro methyltransferase assay with sterol acceptor substrates", "type": "biochemical, Botryococcus braunii race B", "settings": "2 mM acceptor substrate, yeast microsomes, data not shown", "method": "(§1) The various B. braunii SMT-like genes or empty vector control were expressed in TN-7 yeast and grown in 100 ml selection media for 3 days, after which microsomes were prepared according to the methods of Pompon et al. (27). Enzyme assays contained 50 mM HEPES, pH 7.5, either 0.01% (TMT-3) or 0.1% (all other samples) DHPC, 2 mM acceptor substrate (botryococcene, squalene, C32-botryococcene, C32-squalene, cycloartenol, zymosterol, or lanosterol), 50 μM 3H-SAM (˜150 dpm/pmole), 2 μl microsomes, in 100 μl total volume. Assays were set up by first combining everything except 3H-SAM and microsomes and treating with a sonicating water bath (Branson 2510) for ˜1 min. until the solution became cloudy due to micelle formation, after which 3H-SAM and microsomes were added and the reaction incubated at 37° C. for 5 min. Reactions were stopped by adding an equal volume of 10% (w/v) KOH in methanol, followed by extraction of hydrocarbon products with 400 μl n-hexane. An aliquot of the organic phase was spotted on silica TLC plates and developed with n-hexane:MTBE (25:1). Triterpenes were visualized with iodine vapor and the corresponding zones were scraped and subject to scintillation analysis.\nNone of the six enzymes was able to methylate C32 botryococcene or C32 squalene, possible intermediates to the tetramethylated forms (see below)."}, "SMT-1": {"target": "T1, SMT-1 (Botryococcus braunii, UniProt H2E7T8)", "T1 construct": "led to the identification of six full-length ORFs; made in house; host or cells: Saccharomyces cerevisiae TN7 (TN-7), microsomal preparation", "T1 sequence (H2E7T8 1-389)": "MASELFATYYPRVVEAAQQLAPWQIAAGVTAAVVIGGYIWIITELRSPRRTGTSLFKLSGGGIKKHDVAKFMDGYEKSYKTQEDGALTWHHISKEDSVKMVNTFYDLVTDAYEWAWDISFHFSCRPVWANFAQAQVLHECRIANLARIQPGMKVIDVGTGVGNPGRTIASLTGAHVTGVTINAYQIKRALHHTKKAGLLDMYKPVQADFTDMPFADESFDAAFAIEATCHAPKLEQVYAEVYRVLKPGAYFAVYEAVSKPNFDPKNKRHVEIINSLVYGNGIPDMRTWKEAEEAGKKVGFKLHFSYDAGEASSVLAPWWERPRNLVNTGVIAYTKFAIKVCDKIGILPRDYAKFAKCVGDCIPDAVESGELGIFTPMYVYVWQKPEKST", "assay": "In vitro methyltransferase assay, yeast microsomes, 3H-SAM", "type": "biochemical, Botryococcus braunii race B", "settings": "SMT-1 microsomes; 2 mM acceptor substrate, 50 μM 3H-SAM, 0.1% DHPC, 37° C., 5 min", "method": "as §1\n(§2) To verify the in vivo results with in vitro determinations, the six SMT-like genes were expressed in yeast and microsomal preparations used as the source of the enzymes in assays containing 3H-SAM and either botryococcene or squalene as substrates."}, "SMT-2": {"target": "T2, SMT-2 (Botryococcus braunii, UniProt H2E7T9)", "T2 construct": "led to the identification of six full-length ORFs; made in house; host or cells: Saccharomyces cerevisiae TN7 (TN-7), microsomal preparation", "T2 sequence (H2E7T9 1-389)": "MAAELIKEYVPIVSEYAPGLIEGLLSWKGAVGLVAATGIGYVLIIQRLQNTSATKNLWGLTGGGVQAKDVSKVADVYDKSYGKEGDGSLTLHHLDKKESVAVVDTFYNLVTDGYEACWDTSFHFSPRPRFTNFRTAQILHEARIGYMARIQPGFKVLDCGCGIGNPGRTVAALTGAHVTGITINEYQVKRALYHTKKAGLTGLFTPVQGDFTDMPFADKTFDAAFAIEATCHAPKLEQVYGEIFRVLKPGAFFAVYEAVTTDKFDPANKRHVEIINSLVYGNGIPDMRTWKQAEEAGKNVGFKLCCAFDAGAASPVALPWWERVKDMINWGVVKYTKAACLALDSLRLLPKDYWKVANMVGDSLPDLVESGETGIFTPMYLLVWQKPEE", "assay": "In vitro methyltransferase assay, yeast microsomes, 3H-SAM", "type": "biochemical, Botryococcus braunii race B", "settings": "SMT-2 microsomes; 2 mM acceptor substrate, 50 μM 3H-SAM, 0.1% DHPC, 37° C., 5 min", "method": "as §1, §2"}, "SMT-3": {"target": "T3, SMT-3 (Botryococcus braunii, UniProt H2E7U0)", "T3 construct": "led to the identification of six full-length ORFs; made in house; host or cells: Saccharomyces cerevisiae TN7 (TN-7), microsomal preparation", "T3 sequence (H2E7U0 1-392)": "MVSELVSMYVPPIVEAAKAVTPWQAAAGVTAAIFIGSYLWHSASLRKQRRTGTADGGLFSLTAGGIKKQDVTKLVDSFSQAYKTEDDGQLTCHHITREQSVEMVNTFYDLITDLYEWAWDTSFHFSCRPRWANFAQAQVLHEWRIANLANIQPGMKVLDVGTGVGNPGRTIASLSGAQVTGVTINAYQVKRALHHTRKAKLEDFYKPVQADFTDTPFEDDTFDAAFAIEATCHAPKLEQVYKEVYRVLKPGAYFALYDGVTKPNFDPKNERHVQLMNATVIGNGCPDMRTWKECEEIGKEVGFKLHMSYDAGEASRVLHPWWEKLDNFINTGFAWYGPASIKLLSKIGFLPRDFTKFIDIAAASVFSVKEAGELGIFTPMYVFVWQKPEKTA", "assay": "In vitro methyltransferase assay, yeast microsomes, 3H-SAM", "type": "biochemical, Botryococcus braunii race B", "settings": "SMT-3 microsomes; 2 mM acceptor substrate, 50 μM 3H-SAM, 0.1% DHPC, 37° C., 5 min", "method": "as §1, §2"}, "TMT-3 [2]": {"target": "T4, TMT-3 (Botryococcus braunii, UniProt H2E7T7)", "T4 construct": "led to the identification of six full-length ORFs; expressed in transfected cells; host or cells: Saccharomyces cerevisiae TN7 (erg9 insertional mutant) co-expressing B. braunii squalene synthase (BSS) or SSL-1-3m", "T4 sequence (H2E7T7 1-379)": "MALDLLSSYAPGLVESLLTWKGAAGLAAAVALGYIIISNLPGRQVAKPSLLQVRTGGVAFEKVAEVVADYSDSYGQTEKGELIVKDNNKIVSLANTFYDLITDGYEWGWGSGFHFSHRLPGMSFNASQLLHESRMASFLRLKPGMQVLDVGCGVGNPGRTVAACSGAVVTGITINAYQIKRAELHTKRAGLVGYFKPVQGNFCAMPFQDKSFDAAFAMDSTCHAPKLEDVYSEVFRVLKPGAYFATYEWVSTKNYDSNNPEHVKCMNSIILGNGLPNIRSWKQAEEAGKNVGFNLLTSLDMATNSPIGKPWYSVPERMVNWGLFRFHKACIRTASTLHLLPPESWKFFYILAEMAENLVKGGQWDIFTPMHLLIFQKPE", "assay": "In vitro methyltransferase assay, yeast microsomes, 3H-SAM", "type": "biochemical, Botryococcus braunii race B", "settings": "TMT-3 microsomes; 2 mM acceptor substrate, 50 μM 3H-SAM, 0.01% DHPC, 37° C., 5 min; mean ± S.E.M., n = 3", "method": "as §1, §2"}, "TMT-3 [3]": {"target": "T4, TMT-3", "assay": "In vivo co-expression in TN7 yeast with triterpene synthase, GC-MS of organic extracts", "type": "cell-based, Botryococcus braunii race B", "settings": "TN7 yeast co-expressing TMT-3 and BSS", "description": "(§3) Yeast lines previously developed for high level accumulation of squalene and botryococcene were used for evaluating the putative triterpene methyltransferase genes (17,23,24). These lines consist of the TN7 parental strain harboring an insertional mutation in the native yeast squalene synthase gene (ERG9) transformed with expression vectors containing either the full-length Botryococcus squalene synthase (BSS) gene (18) or a fusion of the Botryococcus SSL-1 and SSL-3 genes (functional equivalent of botryococcene synthase) including a sequence encoding for the carboxy-terminal membrane targeting domain of the Botryococcus squalene synthase protein (SSL-1-3m) (17). The various methyltransferase expression vectors were introduced into these two yeast lines using the lithium acetate transformation protocol, followed by selection for complementation of the uracil and leucine auxotrophic growth markers (24). […]\n(§4) In brief, 1 ml aliquots of the culture were combined with 1 ml of acetone, mixed vigorously, and incubated at room temperature for 10 min. […] The mixture was then centrifuged briefly at 500 g to separate the phases, and an aliquot of the organic phase (1-3 μl) analyzed by GC-MS with a Varian CP-3800 GC coupled to a Varian Saturn 2200 MS/MS (Varian Medical Systems) using a Supelco SLB-5 ms fused silica capillary column (30 m×0.25 mm×0.25 μm film thickness, Supelco). […]"}, "TMT-1 [4]": {"target": "T5, TMT-1 (Botryococcus braunii, UniProt H2E7T5)", "T5 sequence (H2E7T5 1-378)": "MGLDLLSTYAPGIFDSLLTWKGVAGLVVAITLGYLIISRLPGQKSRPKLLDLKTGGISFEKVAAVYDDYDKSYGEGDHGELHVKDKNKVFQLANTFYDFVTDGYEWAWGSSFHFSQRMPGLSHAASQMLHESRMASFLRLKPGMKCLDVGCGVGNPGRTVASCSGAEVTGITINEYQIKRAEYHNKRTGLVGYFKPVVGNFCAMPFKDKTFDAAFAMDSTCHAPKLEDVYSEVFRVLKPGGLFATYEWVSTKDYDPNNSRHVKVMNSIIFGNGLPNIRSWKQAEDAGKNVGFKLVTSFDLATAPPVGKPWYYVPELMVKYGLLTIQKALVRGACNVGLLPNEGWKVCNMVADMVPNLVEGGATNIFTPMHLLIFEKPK", "assay": "In vivo co-expression in TN7 yeast with triterpene synthase, GC-MS of organic extracts", "type": "cell-based, Botryococcus braunii race B", "design": "led to the identification of six full-length ORFs; made in house; host or cells: Saccharomyces cerevisiae TN7 (TN-7)", "settings": "TN7 yeast co-expressing TMT-1 and BSS", "description": "as §3, §4"}, "TMT-2 [5]": {"target": "T6, TMT-2 (Botryococcus braunii, UniProt H2E7T6)", "T6 sequence (H2E7T6 1-378)": "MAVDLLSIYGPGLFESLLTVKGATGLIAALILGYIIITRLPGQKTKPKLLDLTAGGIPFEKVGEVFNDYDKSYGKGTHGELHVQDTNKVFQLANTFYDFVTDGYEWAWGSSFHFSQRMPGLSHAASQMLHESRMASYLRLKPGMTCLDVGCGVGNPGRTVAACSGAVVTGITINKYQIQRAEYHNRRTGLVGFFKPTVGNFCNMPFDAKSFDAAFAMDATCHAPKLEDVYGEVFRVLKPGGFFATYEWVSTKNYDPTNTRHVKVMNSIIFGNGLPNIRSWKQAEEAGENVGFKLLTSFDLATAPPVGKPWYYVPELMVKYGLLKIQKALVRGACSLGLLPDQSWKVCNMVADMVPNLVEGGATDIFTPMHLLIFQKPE", "assay": "In vivo co-expression in TN7 yeast with triterpene synthase, GC-MS of organic extracts", "type": "cell-based, Botryococcus braunii race B", "design": "led to the identification of six full-length ORFs; made in house; host or cells: Saccharomyces cerevisiae TN7 (TN-7)", "settings": "TN7 yeast co-expressing TMT-2 and BSS", "description": "as §3, §4"}, "TMT-1 [6]": {"target": "T5, TMT-1", "assay": "In vitro methyltransferase assay, yeast microsomes, 3H-SAM", "type": "biochemical, Botryococcus braunii race B", "design": "led to the identification of six full-length ORFs; made in house; host or cells: Saccharomyces cerevisiae TN7 (TN-7), microsomal preparation", "settings": "TMT-1 microsomes; 2 mM acceptor substrate, 50 μM 3H-SAM, 0.1% DHPC, 37° C., 5 min; mean ± S.E.M., n = 3", "method": "as §1, with “analysis. […]” for “analysis.”"}, "TMT-2 [7]": {"target": "T6, TMT-2", "assay": "In vitro methyltransferase assay, yeast microsomes, 3H-SAM", "type": "biochemical, Botryococcus braunii race B", "design": "led to the identification of six full-length ORFs; made in house; host or cells: Saccharomyces cerevisiae TN7 (TN-7), microsomal preparation", "settings": "TMT-2 microsomes; 2 mM acceptor substrate, 50 μM 3H-SAM, 0.1% DHPC, 37° C., 5 min; mean ± S.E.M., n = 3", "method": "as §1, with “analysis. […]” for “analysis.”"}}}
{"smiles": "CC(C)=CCC[C@@H](C)[C@H]1CC[C@@]2(C)[C@@H]3CC[C@H]4C(C)(C)[C@@H](O)CC[C@@]45C[C@@]35CC[C@]12C", "note": "[cycloartenol]", "values": [{"measurement": "Methylation of the sterol acceptor substrate", "setting": "[1]", "result": "none of the six B. braunii SMT-like genes methylated"}]}
{"smiles": "CC(C)=CCC[C@@H](C)[C@H]1CC[C@@]2(C)C3=C(CC[C@]12C)[C@@]1(C)CC[C@H](O)C(C)(C)[C@@H]1CC3", "note": "[lanosterol]", "values": [{"measurement": "Methylation of the sterol acceptor substrate", "setting": "[1]", "result": "none of the six B. braunii SMT-like genes methylated"}]}
{"smiles": "CC(C)=CCC/C(C)=C/CC/C(C)=C/CC/C=C(\\C)CC/C=C(\\C)CCC=C(C)C", "note": "[squalene]", "values": [{"measurement": "Enzyme activity (methyl groups transferred to acceptor substrate)", "setting": "SMT-1", "result": 0, "unit": "pmol/h/µg"}, {"measurement": "Enzyme activity (methyl groups transferred to acceptor substrate)", "setting": "SMT-2", "result": 0, "unit": "pmol/h/µg"}, {"measurement": "Enzyme activity (methyl groups transferred to acceptor substrate)", "setting": "SMT-3", "result": 0, "unit": "pmol/h/µg"}, {"measurement": "Enzyme activity (methyl groups transferred to acceptor substrate)", "setting": "TMT-3 [2]", "result": "35.4 ± 3.0", "unit": "pmol/h/µg"}, {"measurement": "Share of total accumulating squalene converted to its methyl-derivatives", "setting": "TMT-3 [3]", "result": "approximately 18%"}, {"measurement": "Share of total squalenes accumulated as methyl-derivatives", "setting": "TMT-1 [4]", "result": 63, "unit": "%"}, {"measurement": "Share of squalenes accumulated as methyl-derivatives", "setting": "TMT-2 [5]", "result": 40, "unit": "%"}, {"measurement": "Enzyme activity (methyl groups transferred to acceptor substrate)", "setting": "TMT-1 [6]", "result": "513.7 ± 8.6", "unit": "pmol/h/µg"}, {"measurement": "Enzyme activity (methyl groups transferred to acceptor substrate)", "setting": "TMT-2 [7]", "result": "862.2 ± 59.9", "unit": "pmol/h/µg"}]}
{"smiles": "CC(C)=CCC[C@@H](C)[C@H]1CC[C@H]2C3=C(CC[C@]12C)[C@@]1(C)CC[C@H](O)C[C@@H]1CC3", "note": "[zymosterol]", "values": [{"measurement": "Methylation of the sterol acceptor substrate", "setting": "[1]", "result": "none of the six B. braunii SMT-like genes methylated"}]}
